How the values were obtained:
Assay type in all cases: biochemical
[1] = target: LRRK2 (human, G2019S mutant) (Homo sapiens, UniProt Q5S007, G2019S); test: TR-FRET kinase assay with PLK-peptide, […] h preincubation
LRRK2 (human, wild-type) = LRRK2 (human, wild-type) (Homo sapiens, UniProt Q5S007); test: as above
[2] = target: LRRK2 (full-length, from BAC-transgenic mouse brain) (Mus musculus, UniProt Q5S006); test: TR-FRET kinase assay with PLK-peptide
Chain of LRRK2 (full-length, from BAC-transgenic mouse brain) (Q5S006 whole entry): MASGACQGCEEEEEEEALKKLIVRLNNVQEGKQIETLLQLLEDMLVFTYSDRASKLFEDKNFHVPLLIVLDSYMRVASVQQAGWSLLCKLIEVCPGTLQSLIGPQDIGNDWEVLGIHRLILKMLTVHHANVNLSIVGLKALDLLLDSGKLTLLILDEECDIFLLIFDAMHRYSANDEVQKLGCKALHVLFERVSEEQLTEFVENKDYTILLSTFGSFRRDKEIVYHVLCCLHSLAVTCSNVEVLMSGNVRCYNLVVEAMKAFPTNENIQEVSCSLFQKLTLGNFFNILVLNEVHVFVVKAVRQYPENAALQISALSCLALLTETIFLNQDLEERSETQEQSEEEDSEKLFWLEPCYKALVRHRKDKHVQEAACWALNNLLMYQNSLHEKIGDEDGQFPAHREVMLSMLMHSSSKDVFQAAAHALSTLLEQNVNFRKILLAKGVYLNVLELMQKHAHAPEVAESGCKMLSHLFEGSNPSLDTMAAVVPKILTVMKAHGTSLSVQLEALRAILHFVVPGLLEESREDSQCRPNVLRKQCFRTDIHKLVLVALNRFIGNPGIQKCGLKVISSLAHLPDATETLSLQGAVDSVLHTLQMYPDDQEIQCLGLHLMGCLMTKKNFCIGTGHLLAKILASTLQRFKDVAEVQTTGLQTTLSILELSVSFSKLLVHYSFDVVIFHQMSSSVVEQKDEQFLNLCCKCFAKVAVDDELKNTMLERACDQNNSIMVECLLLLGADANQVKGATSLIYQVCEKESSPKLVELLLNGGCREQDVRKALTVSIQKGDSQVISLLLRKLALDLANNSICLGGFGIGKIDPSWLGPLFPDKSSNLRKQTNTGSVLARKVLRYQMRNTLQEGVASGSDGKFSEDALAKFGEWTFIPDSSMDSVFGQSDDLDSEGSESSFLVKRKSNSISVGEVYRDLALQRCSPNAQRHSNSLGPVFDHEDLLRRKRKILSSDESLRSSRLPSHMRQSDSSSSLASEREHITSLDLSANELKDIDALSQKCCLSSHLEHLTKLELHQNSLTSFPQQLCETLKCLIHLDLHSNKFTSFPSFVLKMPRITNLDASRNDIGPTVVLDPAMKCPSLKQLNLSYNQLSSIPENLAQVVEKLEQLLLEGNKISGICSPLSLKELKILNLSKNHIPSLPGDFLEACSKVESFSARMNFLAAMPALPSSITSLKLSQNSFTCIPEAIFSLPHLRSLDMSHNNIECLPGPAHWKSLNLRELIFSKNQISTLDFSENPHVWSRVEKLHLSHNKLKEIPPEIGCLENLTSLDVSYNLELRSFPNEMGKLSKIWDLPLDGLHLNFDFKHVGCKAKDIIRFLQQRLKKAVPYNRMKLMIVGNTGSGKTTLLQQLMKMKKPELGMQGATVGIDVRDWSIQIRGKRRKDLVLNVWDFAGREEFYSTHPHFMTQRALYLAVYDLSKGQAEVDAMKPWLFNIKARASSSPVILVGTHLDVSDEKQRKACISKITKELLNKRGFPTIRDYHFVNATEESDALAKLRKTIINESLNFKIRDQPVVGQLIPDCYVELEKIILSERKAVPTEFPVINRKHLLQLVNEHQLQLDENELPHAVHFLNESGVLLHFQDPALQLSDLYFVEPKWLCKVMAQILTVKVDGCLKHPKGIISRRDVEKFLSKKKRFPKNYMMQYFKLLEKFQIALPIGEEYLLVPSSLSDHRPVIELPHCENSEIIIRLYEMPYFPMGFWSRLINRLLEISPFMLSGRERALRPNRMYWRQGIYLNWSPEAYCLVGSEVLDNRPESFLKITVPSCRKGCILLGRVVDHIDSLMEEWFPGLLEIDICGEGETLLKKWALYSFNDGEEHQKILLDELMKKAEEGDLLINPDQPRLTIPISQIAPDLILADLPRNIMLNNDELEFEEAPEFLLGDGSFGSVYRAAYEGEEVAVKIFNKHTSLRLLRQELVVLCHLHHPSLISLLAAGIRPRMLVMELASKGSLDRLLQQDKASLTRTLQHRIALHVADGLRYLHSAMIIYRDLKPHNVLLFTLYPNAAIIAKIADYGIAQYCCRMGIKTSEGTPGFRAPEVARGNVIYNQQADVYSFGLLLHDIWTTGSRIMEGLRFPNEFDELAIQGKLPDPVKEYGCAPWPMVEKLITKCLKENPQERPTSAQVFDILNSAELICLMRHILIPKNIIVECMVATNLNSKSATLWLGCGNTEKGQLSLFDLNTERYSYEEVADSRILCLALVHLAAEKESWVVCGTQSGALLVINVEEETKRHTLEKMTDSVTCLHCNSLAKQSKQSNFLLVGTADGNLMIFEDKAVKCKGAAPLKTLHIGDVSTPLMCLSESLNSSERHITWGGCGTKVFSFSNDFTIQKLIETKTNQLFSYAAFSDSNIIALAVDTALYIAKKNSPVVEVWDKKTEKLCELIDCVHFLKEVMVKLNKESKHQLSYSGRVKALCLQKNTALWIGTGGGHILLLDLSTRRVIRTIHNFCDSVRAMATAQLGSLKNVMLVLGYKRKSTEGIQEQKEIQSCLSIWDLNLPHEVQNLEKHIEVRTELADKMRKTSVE

Chain of LRRK2 (human, G2019S mutant) (Q5S007 970-2527 G2019S): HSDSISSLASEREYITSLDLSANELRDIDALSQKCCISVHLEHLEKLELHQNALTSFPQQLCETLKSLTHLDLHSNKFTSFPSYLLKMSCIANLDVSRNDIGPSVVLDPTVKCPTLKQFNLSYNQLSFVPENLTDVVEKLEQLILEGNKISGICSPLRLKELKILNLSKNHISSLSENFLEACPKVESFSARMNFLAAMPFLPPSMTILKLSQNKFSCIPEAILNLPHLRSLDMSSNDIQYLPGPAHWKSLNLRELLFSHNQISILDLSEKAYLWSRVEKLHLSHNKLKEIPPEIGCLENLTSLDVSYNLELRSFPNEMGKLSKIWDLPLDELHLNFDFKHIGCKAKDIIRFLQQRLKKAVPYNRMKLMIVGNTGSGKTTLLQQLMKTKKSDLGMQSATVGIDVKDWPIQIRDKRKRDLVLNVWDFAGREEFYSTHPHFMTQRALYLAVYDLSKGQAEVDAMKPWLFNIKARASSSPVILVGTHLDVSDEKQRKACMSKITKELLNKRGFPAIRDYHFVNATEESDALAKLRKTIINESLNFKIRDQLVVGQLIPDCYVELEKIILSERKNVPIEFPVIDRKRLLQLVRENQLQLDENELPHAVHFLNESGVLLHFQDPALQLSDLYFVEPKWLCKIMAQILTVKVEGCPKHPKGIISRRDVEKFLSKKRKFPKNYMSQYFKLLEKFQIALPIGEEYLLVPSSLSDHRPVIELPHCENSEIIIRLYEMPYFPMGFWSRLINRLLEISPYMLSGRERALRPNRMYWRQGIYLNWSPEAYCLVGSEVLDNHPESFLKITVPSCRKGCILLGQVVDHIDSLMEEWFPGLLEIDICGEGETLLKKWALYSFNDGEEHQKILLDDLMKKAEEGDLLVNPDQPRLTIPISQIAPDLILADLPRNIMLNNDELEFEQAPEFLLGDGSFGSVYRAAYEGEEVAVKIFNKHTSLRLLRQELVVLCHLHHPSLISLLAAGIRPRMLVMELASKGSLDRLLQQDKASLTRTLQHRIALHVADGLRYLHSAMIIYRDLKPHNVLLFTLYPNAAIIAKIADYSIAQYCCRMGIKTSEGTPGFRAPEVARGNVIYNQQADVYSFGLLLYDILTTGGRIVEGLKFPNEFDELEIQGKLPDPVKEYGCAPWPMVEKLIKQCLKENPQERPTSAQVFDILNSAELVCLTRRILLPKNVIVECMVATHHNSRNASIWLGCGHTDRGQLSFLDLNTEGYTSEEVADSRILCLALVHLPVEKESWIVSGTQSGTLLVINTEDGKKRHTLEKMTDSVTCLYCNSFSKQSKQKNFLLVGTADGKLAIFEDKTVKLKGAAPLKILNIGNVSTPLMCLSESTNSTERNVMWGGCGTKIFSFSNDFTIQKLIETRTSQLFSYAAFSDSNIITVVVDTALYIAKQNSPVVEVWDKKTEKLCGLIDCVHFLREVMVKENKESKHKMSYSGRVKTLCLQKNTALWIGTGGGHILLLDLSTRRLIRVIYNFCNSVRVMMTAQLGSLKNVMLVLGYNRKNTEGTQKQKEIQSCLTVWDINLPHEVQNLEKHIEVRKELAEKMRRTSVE
Chain of LRRK2 (human, wild-type) (Q5S007 970-2527): as the sequence (Q5S007 970-2527 G2019S) above, with S1050G counted along it

LDN-22684 showed an IC50 [1] of 6.9 ± 1 µM, an IC50 (LRRK2 (human, wild-type)) of 6.1 ± 0.8 µM and an IC50 [2] of 5.4 ± 0.8 µM.

Source: publication PMC2921631 (Analytical biochemistry, 2010)
